From PubChem BioAssay AID2060893 (Molecular Pharmacology Branch, DTP, NCI, 2025)
pIC50: −log10 of the molar value.

System: K86415-001-R-J1-PDC complex spheroids, viability
Test: Anticancer human tumor K86415-001-R-J1-PDC patient-derived lung adenocarcinoma cell line growth inhibition [RAS]
Settings: for pIC50: curve of first compound; for viability, T/C: stronger effect = lower value
Procedure, shortened: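 Agents were tested in combination matrices in half-log decrements from a top concentration at or near clinical Cmax (10 microM if undetermined). Targets were multi-cell spheroids of tumour lines plus HUVEC and MSC stromal cells.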

[1] = second compound 0.000949 µM, first compound 0.000949 µM
[2] = second compound 0.000949 µM, first compound 0.003 µM
[3] = second compound 0.000949 µM, first compound 0.00949 µM
[4] = second compound 0.000949 µM, first compound 0.03 µM
[5] = second compound 0.000949 µM, first compound 0.0949 µM
[6] = second compound 0.000949 µM, first compound 0.3 µM
[7] = second compound 0.003 µM, first compound 0.000949 µM
[8] = second compound 0.003 µM, first compound 0.003 µM
[9] = second compound 0.003 µM, first compound 0.00949 µM
[10] = second compound 0.003 µM, first compound 0.03 µM
[11] = second compound 0.003 µM, first compound 0.0949 µM
[12] = second compound 0.003 µM, first compound 0.3 µM
[13] = second compound 0.00949 µM, first compound 0.000949 µM
[14] = second compound 0.00949 µM, first compound 0.003 µM
[15] = second compound 0.00949 µM, first compound 0.00949 µM
[16] = second compound 0.00949 µM, first compound 0.03 µM
[17] = second compound 0.00949 µM, first compound 0.0949 µM
[18] = second compound 0.00949 µM, first compound 0.3 µM
[19] = second compound 0.03 µM, first compound 0.000949 µM
[20] = second compound 0.03 µM, first compound 0.003 µM
[21] = second compound 0.03 µM, first compound 0.00949 µM
[22] = second compound 0.03 µM, first compound 0.03 µM
[23] = second compound 0.03 µM, first compound 0.0949 µM
[24] = second compound 0.03 µM, first compound 0.3 µM
[25] = second compound 0.0949 µM, first compound 0.000949 µM
[26] = second compound 0.0949 µM, first compound 0.003 µM
[27] = second compound 0.0949 µM, first compound 0.00949 µM
[28] = second compound 0.0949 µM, first compound 0.03 µM
[29] = second compound 0.0949 µM, first compound 0.0949 µM
[30] = second compound 0.0949 µM, first compound 0.3 µM
[31] = second compound 0.3 µM, first compound 0.000949 µM
[32] = second compound 0.3 µM, first compound 0.003 µM
[33] = second compound 0.3 µM, first compound 0.00949 µM
[34] = second compound 0.3 µM, first compound 0.03 µM
[35] = second compound 0.3 µM, first compound 0.0949 µM
[36] = second compound 0.3 µM, first compound 0.3 µM
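Further: spheroids exposed to agents for seven days before readout.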

For `C=CC(=O)N1CCN(c2nc(OCC3CCCN3C)nc3c(F)c(-c4nc(N)cc(C)c4C(F)(F)F)c(Cl)cc23)C(C)C1` (stereo unspecified) + CCn1c(-c2cccnc2C(C)OC)c2c3cc(ccc31)N1CCOC(CC(NC(=O)C(C(C)C)N(C)C(=O)C3(F)CCN(C(=O)C#CC(C)(C)N(C)C)CC3)C(=O)N3CCCC(N3)C(=O)OCC(C)(C)C2)C1, the pIC50 (second compound 0.000949 µM) was > 8.50, the pIC50 (second compound 0.003 µM) was > 8.50 and the pIC50 (second compound 0.00949 µM) was > 8.50. The pIC50 (second compound 0.03 µM) was > 8.50, the pIC50 (second compound 0.0949 µM) was > 8.50 and the pIC50 (second compound 0.3 µM) was > 8.50. It also gave a viability, T/C (second compound 0.000949 µM, first compound 0.00316 µM) of 13.8%, a viability, T/C (second compound 0.000949 µM, first compound 0.01 µM) of 12.1% and a viability, T/C (second compound 0.000949 µM, first compound 0.0316 µM) of 9.94%. The viability, T/C (second compound 0.000949 µM, first compound 0.1 µM) was 9.02%, the viability, T/C (second compound 0.000949 µM, first compound 0.316 µM) was 11.8% and the viability, T/C (second compound 0.000949 µM, first compound 1 µM) was 9.5%. For the same compound, the viability, T/C (second compound 0.003 µM, first compound 0.00316 µM) was 13.5%, the viability, T/C (second compound 0.003 µM, first compound 0.01 µM) was 12.9% and the viability, T/C (second compound 0.003 µM, first compound 0.0316 µM) was 12.2%. It also gave a viability, T/C (second compound 0.003 µM, first compound 0.1 µM) of 11.1%, a viability, T/C (second compound 0.003 µM, first compound 0.316 µM) of 12% and a viability, T/C (second compound 0.003 µM, first compound 1 µM) of 9.09%. The viability, T/C (second compound 0.00949 µM, first compound 0.00316 µM) was 13.7%, the viability, T/C (second compound 0.00949 µM, first compound 0.01 µM) was 10.7% and the viability, T/C (second compound 0.00949 µM, first compound 0.0316 µM) was 14.6%. For the same compound, the viability, T/C (second compound 0.00949 µM, first compound 0.1 µM) was 10.1%, the viability, T/C (second compound 0.00949 µM, first compound 0.316 µM) was 10.7% and the viability, T/C (second compound 0.00949 µM, first compound 1 µM) was 11.4%. It also gave a viability, T/C (second compound 0.03 µM, first compound 0.00316 µM) of 13%, a viability, T/C (second compound 0.03 µM, first compound 0.01 µM) of 13.4% and a viability, T/C (second compound 0.03 µM, first compound 0.0316 µM) of 11.1%. It also gave a viability, T/C (second compound 0.03 µM, first compound 0.1 µM) of 11.8%, a viability, T/C (second compound 0.03 µM, first compound 0.316 µM) of 11.7% and a viability, T/C (second compound 0.03 µM, first compound 1 µM) of 16.2%. For the same compound, the viability, T/C (second compound 0.0949 µM, first compound 0.00316 µM) was 11%, the viability, T/C (second compound 0.0949 µM, first compound 0.01 µM) was 10.7% and the viability, T/C (second compound 0.0949 µM, first compound 0.0316 µM) was 13.2%. The viability, T/C (second compound 0.0949 µM, first compound 0.1 µM) was 11.2%, the viability, T/C (second compound 0.0949 µM, first compound 0.316 µM) was 12.8% and the viability, T/C (second compound 0.0949 µM, first compound 1 µM) was 15.8%. For the same compound, the viability, T/C (second compound 0.3 µM, first compound 0.00316 µM) was 12%, the viability, T/C (second compound 0.3 µM, first compound 0.01 µM) was 12.6% and the viability, T/C (second compound 0.3 µM, first compound 0.0316 µM) was 14.4%. It also gave a viability, T/C (second compound 0.3 µM, first compound 0.1 µM) of 11.2%, a viability, T/C (second compound 0.3 µM, first compound 0.316 µM) of 14% and a viability, T/C (second compound 0.3 µM, first compound 1 µM) of 14.1%.

For `CC1(C)CCC(Nc2ncc(C(F)(F)F)c(-c3c[nH]c4c(P(C)(C)=O)c(C#N)ccc34)n2)CN1` (stereo unspecified) + CCn1c(-c2cccnc2C(C)OC)c2c3cc(ccc31)N1CCOC(CC(NC(=O)C(C(C)C)N(C)C(=O)C3(F)CCN(C(=O)C#CC(C)(C)N(C)C)CC3)C(=O)N3CCCC(N3)C(=O)OCC(C)(C)C2)C1, the pIC50 (second compound 0.000949 µM) was > 9.02, the pIC50 (second compound 0.003 µM) was > 9.02 and the pIC50 (second compound 0.00949 µM) was > 9.02. For the same compound, the pIC50 (second compound 0.03 µM) was > 9.02, the pIC50 (second compound 0.0949 µM) was > 9.02 and the pIC50 (second compound 0.3 µM) was > 9.02. The viability, T/C [1] was 46.4%, the viability, T/C [2] was 48.8% and the viability, T/C [3] was 35.2%. For the same compound, the viability, T/C [4] was 57.9%, the viability, T/C [5] was 54.9% and the viability, T/C [6] was 41.8%. The viability, T/C [7] was 15.9%, the viability, T/C [8] was 14.2% and the viability, T/C [9] was 17.2%. It also gave a viability, T/C [10] of 19.4%, a viability, T/C [11] of 22.6% and a viability, T/C [12] of 20.4%. It also gave a viability, T/C [13] of 13.5%, a viability, T/C [14] of 12.7% and a viability, T/C [15] of 16.5%. It also gave a viability, T/C [16] of 20.3%, a viability, T/C [17] of 20.1% and a viability, T/C [18] of 21.1%. For the same compound, the viability, T/C [19] was 13.3%, the viability, T/C [20] was 16.3% and the viability, T/C [21] was 17%. For the same compound, the viability, T/C [22] was 13.9%, the viability, T/C [23] was 14.8% and the viability, T/C [24] was 21.1%. The viability, T/C [25] was 12.1%, the viability, T/C [26] was 17.4% and the viability, T/C [27] was 17.6%. It also gave a viability, T/C [28] of 19.6%, a viability, T/C [29] of 15.4% and a viability, T/C [30] of 20.1%. The viability, T/C [31] was 15.7%, the viability, T/C [32] was 15.3% and the viability, T/C [33] was 16.7%. For the same compound, the viability, T/C [34] was 14.6%, the viability, T/C [35] was 18.2% and the viability, T/C [36] was 20.9%.

In the case of `CCc1c2c(nc3ccc(O)cc13)-c1cc3c(c(=O)n1C2)COC(=O)[C@]3(O)CC` + CCn1c(-c2cccnc2C(C)OC)c2c3cc(ccc31)N1CCOC(CC(NC(=O)C(C(C)C)N(C)C(=O)C3(F)CCN(C(=O)C#CC(C)(C)N(C)C)CC3)C(=O)N3CCCC(N3)C(=O)OCC(C)(C)C2)C1, the pIC50 (second compound 0.000949 µM) was > 9.02, the pIC50 (second compound 0.003 µM) was > 9.02 and the pIC50 (second compound 0.00949 µM) was > 9.02. The pIC50 (second compound 0.03 µM) was > 9.02, the pIC50 (second compound 0.0949 µM) was > 9.02 and the pIC50 (second compound 0.3 µM) was > 9.02. It also gave a viability, T/C [1] of 36.7%, a viability, T/C [2] of 25.1% and a viability, T/C [3] of 10.1%. The viability, T/C [4] was 12.2%, the viability, T/C [5] was 9.29% and the viability, T/C [6] was 3.47%. It also gave a viability, T/C [7] of 11.9%, a viability, T/C [8] of 13.2% and a viability, T/C [9] of 9.42%. It also gave a viability, T/C [10] of 10.6%, a viability, T/C [11] of 6.9% and a viability, T/C [12] of 2.68%. It also gave a viability, T/C [13] of 11.8%, a viability, T/C [14] of 10.5% and a viability, T/C [15] of 10.8%. For the same compound, the viability, T/C [16] was 9.69%, the viability, T/C [17] was 7.47% and the viability, T/C [18] was 3.83%. It also gave a viability, T/C [19] of 10.7%, a viability, T/C [20] of 11.6% and a viability, T/C [21] of 8.61%. It also gave a viability, T/C [22] of 10.2%, a viability, T/C [23] of 6.38% and a viability, T/C [24] of 2.86%. The viability, T/C [25] was 10.8%, the viability, T/C [26] was 9.6% and the viability, T/C [27] was 10.9%. For the same compound, the viability, T/C [28] was 9.82%, the viability, T/C [29] was 3.93% and the viability, T/C [30] was 2.05%. For the same compound, the viability, T/C [31] was 13.9%, the viability, T/C [32] was 9.91% and the viability, T/C [33] was 7.1%. For the same compound, the viability, T/C [34] was 6.45%, the viability, T/C [35] was 3.04% and the viability, T/C [36] was 2.24%.
